Test results from ChEMBL document CHEMBL1146748, “Synthesis and preliminary biological evaluation of truncated zoanthenol analogues” (Bioorg Med Chem Lett, 2004).

The compounds below were run on MH60 (assay: Compound was tested for inhibition of interleukin-6-dependent MH60 cell growth; Very weak inhibition). Conditions: not given.
Type: functional, cell-based

| SMILES | IC50 |
| --- | --- |
| Cc1cc(O)c2c(c1)[C@]1(C)CC(=O)[C@@]3(C)CCCC[C@@]3(C)[C@@]1(C)C(=O)[C@@H]2C | Very weak inhibition |
| C[C@H]1C[C@@H]2CN3C45CCC[C@](C)(CC(=O)O4)[C@]5(C)CC[C@@]3(C1)O2 | Very weak inhibition |

These compounds were tested on MH60 (assay: Compound was tested for inhibition of interleukin-6-dependent MH60 cell growth). Conditions: Mus musculus.
Type: functional, cell-based

| SMILES | IC50 |
| --- | --- |
| CCCCC1=C(C)C(=O)[C@](C)(CN2c3ccccc3[C@]3(O)CCOC23)C1=O (stereo partly specified) [MADINDOLINE A] | 8 µM |
| C[C@H]1C[C@@H]2C[N+]3=C4CCC[C@](C)(CC(=O)O)[C@]4(C)CC[C@@]3(C1)O2 | ~70 µM |
| CC1=CC(=O)[C@H]2CC(=O)[C@H]3[C@@](C)(CC4=[N+]5C[C@H]6C[C@H](C)C[C@]5(CC[C@@]4(C)[C@@]3(C)CC(=O)O)O6)[C@@H]2C1 | 13 µM |
| CC1=CC(=O)[C@@H]2[C@@H](C1)[C@]1(C)CC3=[N+]4C[C@H]5C[C@H](C)C[C@]4(CC[C@@]3(C)[C@@](C)(CC(=O)O)[C@H]1C(=O)[C@@H]2C)O5 | 26 µM |
